Assay results taken from patent US9765069B2, “Antimicrobial compounds” (OXFORD UNIVERSITY INNOVATION LIMITED, priority 2012, dated 2017).
Converted amounts (≈) assume the structure as drawn.

Columns and labels:
S1 = test: MIC determination (bacteria), strain S1; format: cell-based, S. aureus; settings: 2-fold broth dilution
Protocol: (§1) MIC determination (bacteria); MICs were determined based on Clinical and Laboratory Standards Institute (CLSI) methodology (Methods for dilution antimicrobial susceptibility tests for bacteria that grow aerobically; Approved Standard—seventh edition. 2006, M7-A7, CLSI, Wayne Pa.) by a 2-fold broth dilution technique in Mueller Hinton (pH7.4 Biorad). For S. pneumoniae, the medium was supplemented with 2.5% laked horse blood. For H. influenzae, the medium was haemophilus test medium (H.T.M.). Overnight cultures were diluted to obtain the final inoculum of 10^5 cfu/well. Incubation was 37° C. overnight in ambient air. The MIC was defined as the lowest concentration which inhibited all visual growth and expressed in μg/ml. For each bacterial species, all of the molecules were tested in the same experiment in order to give a head-to-head comparison.

S26 = test: MIC determination (bacteria), strain S26; format: cell-based, S. aureus; settings: 2-fold broth dilution
Protocol: as §1

S4 = test: MIC determination (bacteria), strain S4; format: cell-based, S. aureus; settings: 2-fold broth dilution
Protocol: as §1

[1] = tested on: S2 (S. aureus 2, MRSA in vivo); test: MIC determination (bacteria), strain S2; format: cell-based; settings: 2-fold broth dilution
Protocol: as §1

E1 = test: MIC determination (bacteria), strain E1; format: cell-based, enterococcus; settings: 2-fold broth dilution
Protocol: as §1

E2 = test: MIC determination (bacteria), strain E2; format: cell-based, enterococcus; settings: 2-fold broth dilution
Protocol: as §1

P1 = test: MIC determination (bacteria), strain P1; format: cell-based, S. pneumoniae; settings: 2-fold broth dilution
Protocol: as §1

P9 = test: MIC determination (bacteria), strain P9; format: cell-based, S. pneumoniae; settings: 2-fold broth dilution
Protocol: as §1

P9B = test: MIC determination (bacteria), strain P9B; format: cell-based, S. pneumoniae; settings: 2-fold broth dilution
Protocol: as §1

H3 = test: MIC determination (bacteria), strain H3; format: cell-based, H. influenzae; settings: haemophilus test medium
Protocol: as §1

H4 = test: MIC determination (bacteria), strain H4; format: cell-based, H. influenzae; settings: haemophilus test medium
Protocol: as §1

E. Coli RNAP = E. Coli RNAP (Escherichia coli, UniProt P0A8T7+P0A8V2); test: In vitro activity against E. Coli RNAP; format: biochemical
Sequence of E. Coli RNAP (P0A8V2 whole entry): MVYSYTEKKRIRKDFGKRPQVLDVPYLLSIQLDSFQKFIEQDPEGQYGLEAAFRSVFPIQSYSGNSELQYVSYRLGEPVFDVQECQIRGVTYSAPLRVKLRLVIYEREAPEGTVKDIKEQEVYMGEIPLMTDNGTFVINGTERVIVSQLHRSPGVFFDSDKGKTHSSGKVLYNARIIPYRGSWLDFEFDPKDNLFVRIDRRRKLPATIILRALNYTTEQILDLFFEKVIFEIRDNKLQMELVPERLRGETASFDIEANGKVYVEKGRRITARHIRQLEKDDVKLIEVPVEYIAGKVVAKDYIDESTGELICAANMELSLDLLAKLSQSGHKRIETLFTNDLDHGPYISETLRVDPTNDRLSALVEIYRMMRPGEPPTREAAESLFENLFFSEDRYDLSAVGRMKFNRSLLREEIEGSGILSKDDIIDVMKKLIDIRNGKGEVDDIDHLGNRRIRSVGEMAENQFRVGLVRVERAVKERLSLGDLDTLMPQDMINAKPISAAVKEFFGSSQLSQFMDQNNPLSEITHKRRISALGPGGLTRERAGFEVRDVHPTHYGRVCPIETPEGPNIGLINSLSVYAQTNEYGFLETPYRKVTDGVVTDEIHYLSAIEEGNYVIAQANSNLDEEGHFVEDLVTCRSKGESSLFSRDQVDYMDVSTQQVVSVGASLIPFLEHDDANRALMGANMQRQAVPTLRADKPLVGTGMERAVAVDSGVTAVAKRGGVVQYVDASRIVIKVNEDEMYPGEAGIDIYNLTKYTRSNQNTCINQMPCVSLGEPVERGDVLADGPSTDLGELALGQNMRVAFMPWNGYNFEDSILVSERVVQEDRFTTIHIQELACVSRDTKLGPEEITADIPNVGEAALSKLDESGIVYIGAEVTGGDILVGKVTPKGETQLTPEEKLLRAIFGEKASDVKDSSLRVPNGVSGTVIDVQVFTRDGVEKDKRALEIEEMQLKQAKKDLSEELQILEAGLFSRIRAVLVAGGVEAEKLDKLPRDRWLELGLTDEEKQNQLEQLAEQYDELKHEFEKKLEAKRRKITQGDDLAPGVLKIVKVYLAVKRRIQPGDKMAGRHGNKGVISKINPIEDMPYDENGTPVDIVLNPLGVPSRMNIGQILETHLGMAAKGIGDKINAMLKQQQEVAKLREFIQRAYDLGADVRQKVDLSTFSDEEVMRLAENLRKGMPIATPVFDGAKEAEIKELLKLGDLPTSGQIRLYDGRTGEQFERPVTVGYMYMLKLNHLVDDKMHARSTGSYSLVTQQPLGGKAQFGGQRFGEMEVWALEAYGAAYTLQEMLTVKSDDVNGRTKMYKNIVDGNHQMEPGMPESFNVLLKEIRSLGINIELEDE
Sequence of E. Coli RNAP (P0A8T7 whole entry): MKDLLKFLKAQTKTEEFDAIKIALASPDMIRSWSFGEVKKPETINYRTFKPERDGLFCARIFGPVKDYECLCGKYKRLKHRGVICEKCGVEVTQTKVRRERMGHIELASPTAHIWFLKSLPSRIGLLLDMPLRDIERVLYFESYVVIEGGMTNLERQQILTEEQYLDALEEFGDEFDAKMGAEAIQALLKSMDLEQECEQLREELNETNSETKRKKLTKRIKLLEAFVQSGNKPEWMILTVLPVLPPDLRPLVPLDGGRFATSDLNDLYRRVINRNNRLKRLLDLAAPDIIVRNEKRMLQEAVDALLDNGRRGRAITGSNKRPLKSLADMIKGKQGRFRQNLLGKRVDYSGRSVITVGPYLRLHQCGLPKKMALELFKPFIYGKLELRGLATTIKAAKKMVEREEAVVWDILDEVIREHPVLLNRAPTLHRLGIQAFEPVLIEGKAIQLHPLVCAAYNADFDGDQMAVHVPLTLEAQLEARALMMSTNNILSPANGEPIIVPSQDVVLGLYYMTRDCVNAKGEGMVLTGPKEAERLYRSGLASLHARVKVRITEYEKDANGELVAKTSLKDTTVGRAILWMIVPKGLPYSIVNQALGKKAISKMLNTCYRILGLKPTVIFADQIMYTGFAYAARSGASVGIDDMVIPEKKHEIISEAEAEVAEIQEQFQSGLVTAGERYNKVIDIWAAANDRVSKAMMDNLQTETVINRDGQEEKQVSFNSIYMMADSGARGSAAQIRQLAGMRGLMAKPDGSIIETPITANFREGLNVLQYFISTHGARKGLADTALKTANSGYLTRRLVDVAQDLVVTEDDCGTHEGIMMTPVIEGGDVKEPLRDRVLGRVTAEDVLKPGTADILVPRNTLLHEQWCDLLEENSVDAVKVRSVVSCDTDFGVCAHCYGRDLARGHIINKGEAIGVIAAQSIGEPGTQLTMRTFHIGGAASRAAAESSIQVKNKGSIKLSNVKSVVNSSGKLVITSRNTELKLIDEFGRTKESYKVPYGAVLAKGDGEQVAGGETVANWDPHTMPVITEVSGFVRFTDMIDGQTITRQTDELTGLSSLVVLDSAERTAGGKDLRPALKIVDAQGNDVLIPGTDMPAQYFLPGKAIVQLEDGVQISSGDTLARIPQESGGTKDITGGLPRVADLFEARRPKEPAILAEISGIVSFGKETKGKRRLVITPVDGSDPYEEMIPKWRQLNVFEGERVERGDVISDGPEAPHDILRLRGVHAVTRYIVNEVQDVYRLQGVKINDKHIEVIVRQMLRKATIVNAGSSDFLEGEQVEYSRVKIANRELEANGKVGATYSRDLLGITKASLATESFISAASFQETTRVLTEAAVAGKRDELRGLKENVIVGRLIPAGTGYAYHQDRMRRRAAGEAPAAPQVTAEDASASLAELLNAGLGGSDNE
Sequence of E. Coli RNAP (P0A7Z4 whole entry partner): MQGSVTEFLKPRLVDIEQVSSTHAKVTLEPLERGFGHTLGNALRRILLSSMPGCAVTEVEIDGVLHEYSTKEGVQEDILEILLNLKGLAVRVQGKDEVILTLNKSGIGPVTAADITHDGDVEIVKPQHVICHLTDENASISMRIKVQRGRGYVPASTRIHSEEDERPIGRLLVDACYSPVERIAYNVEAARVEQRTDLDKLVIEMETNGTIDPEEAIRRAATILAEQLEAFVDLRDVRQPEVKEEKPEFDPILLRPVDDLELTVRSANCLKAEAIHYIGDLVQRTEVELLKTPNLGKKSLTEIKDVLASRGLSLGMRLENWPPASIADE
Sequence of E. Coli RNAP (P0A800 whole entry partner): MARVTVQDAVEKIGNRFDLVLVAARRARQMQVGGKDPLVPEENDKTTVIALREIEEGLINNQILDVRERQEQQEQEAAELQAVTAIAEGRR
Source text: (§2) These properties can be determined according to techniques that are well known in the art.

S. aureus membrane = test: In vitro activity in depolarization of S. aureus membrane; format: cell-based; settings: read-out: DEP (IC50)
Source text: as §2

[2] = tested on: mammalian_red blood cell membrane; test: In vitro mammalian red blood cell membrane lysis activity; format: cell-based; settings: Active or inactive at 100 μM
Source text: as §2

[3] = tested on: human embryonic kidney 293 cells; test: in vitro toxicities against human embryonic kidney 293 cells; format: cell-based; settings: human embryonic kidney 293 cells
Source text: as §2

[4] = tested on: human peripheral blood cells; test: in vitro toxicities human peripheral blood cells; format: cell-based; settings: human peripheral blood cells
Source text: as §2

[5] = aqueous solubility at pH 7.4; format: physicochemical; settings: aqueous solubility at pH 7.4 (water with 2% DMSO)
Source text: as §2

SMILES | MIC S1 (S1; Table 1) | MIC S26 (S26; Table 1) | MIC S4 (S4; Table 1) | MIC S2 ([1]; Table 1) | MIC E1 (E1; Table 1) | MIC E2 (E2; Table 1) | MIC P1 (P1; Table 1) | MIC P9 (P9; Table 1) | MIC P9B (P9B; Table 1) | MIC H3 (H3; Table 1) | MIC H4 (H4; Table 1) | IC50 (E. Coli RNAP) | IC50 (S. aureus membrane) | RBC membrane lysis activity (active/inactive) [2] | Hek293 (LD50, μM) [3] | PMBC (LD50, μM) [4] | SOL [5] | MIC S1 (S1; Table 2) | MIC S26 (S26; Table 2) | MIC S4 (S4; Table 2) | other results
CCCCCCCCCCCC(O)=C1C(=O)CCN(C(=O)c2ccccc2)C1=O [25b] | 0.5 µg/mL (≈ 1.25 µM) | 1 µg/mL (≈ 2.5 µM) | 0.5 µg/mL (≈ 1.25 µM) | 0.5 µg/mL (≈ 1.25 µM) | 0.25 µg/mL (≈ 0.626 µM) | 0.5 µg/mL (≈ 1.25 µM) | 0.25 µg/mL (≈ 0.626 µM) | 0.25 µg/mL (≈ 0.626 µM) | 1 µg/mL (≈ 2.5 µM) | 8 µg/mL (≈ 20 µM) | 4 µg/mL (≈ 10 µM) | 86 µM | 94.4 µM | Inactive^d | >90.9 µM | >90.9 µM | >300 µM | – | – | – | –
CSCCC1C(=O)C(=C(O)CC23CC4CC(CC(C4)C2)C3)C(=O)N1C(=O)C1CCCCC1 (stereo not shown) [31f] | – | – | – | – | – | – | – | – | – | – | – | 40 µM | > 100 µM | Inactive^d | 90.9 µM | >90.9 µM | >300 µM | 0.5 µg/mL (≈ 1.09 µM) | 1 µg/mL (≈ 2.18 µM) | 0.5 µg/mL (≈ 1.09 µM) | MIC S2 ([1]; Table 2): 2 µg/mL (≈ 4.35 µM); MIC E1 (E1; Table 2): 0.5 µg/mL (≈ 1.09 µM); MIC E2 (E2; Table 2): 1 µg/mL (≈ 2.18 µM); MIC P1 (P1; Table 2): 1 µg/mL (≈ 2.18 µM); MIC P9 (P9; Table 2): 0.5 µg/mL (≈ 1.09 µM); MIC P9B (P9B; Table 2): 2 µg/mL (≈ 4.35 µM); MIC H3 (H3; Table 2): 32 µg/mL (≈ 69.6 µM); MIC H4 (H4; Table 2 and its footnote f): 2 µg/mL (≈ 4.35 µM)
CCCCCCCC(O)=C1C(=O)C(CCSC)N(C(=O)CC(C)CC(C)(C)C)C1=O (stereo not shown) [24j] | 0.5 µg/mL (≈ 1.14 µM) | 1 µg/mL (≈ 2.27 µM) | 0.5 µg/mL (≈ 1.14 µM) | 0.5 µg/mL (≈ 1.14 µM) | 0.25 µg/mL (≈ 0.569 µM) | 0.25 µg/mL (≈ 0.569 µM) | 0.12 µg/mL (≈ 0.273 µM) | 0.12 µg/mL (≈ 0.273 µM) | 4 µg/mL (≈ 9.1 µM) | >64 µg/mL | 2 µg/mL (≈ 4.55 µM) | 19 µM | > 100 µM | Active | 10.1 µM | 30.3 µM | >300 µM | – | – | – | –
CCCCCCC(=O)N1CC(=O)C(=C(O)CCCC2CCCCC2)C1=O [27c] | – | – | – | – | – | – | – | – | – | – | – | > 100 µM | > 100 µM | – | 30.3 µM | 90.9 µM | >200 µM | 0.25 µg/mL (≈ 0.688 µM) | 1 µg/mL (≈ 2.75 µM) | 0.5 µg/mL (≈ 1.38 µM) | MIC S2 ([1]; Table 2): 1 µg/mL (≈ 2.75 µM); MIC E1 (E1; Table 2): 0.5 µg/mL (≈ 1.38 µM); MIC E2 (E2; Table 2): 0.12 µg/mL (≈ 0.33 µM); MIC P1 (P1; Table 2): 0.12 µg/mL (≈ 0.33 µM); MIC P9 (P9; Table 2): <0.06 µg/mL; MIC P9B (P9B; Table 2): 2 µg/mL (≈ 5.5 µM); MIC H3 (H3; Table 2): 2 µg/mL (≈ 5.5 µM); MIC H4 (H4; Table 2 and its footnote f): 1 µg/mL (≈ 2.75 µM)
CCCCCCCCCCCCC/C(O)=C1\C(=O)[C@@H]2CCCC(=O)N2C1=O [22b] | – | – | – | – | – | – | – | – | – | – | – | > 100 µM | > 100 µM | Active | 90.9 µM | >90.9 µM | 38 to 75 µM | – | – | – | –
